{"source": "patent US10662187B2", "about": "“Bruton's tyrosine kinase inhibitors” (Zibo Biopolar Changsheng Pharmaceutical Co. Ltd., priority 2016, dated 2020)", "data": [{"target": "BTK (Homo sapiens (Human), UniProt Q06187)", "sequence (Q06187 whole entry, species assumed)": "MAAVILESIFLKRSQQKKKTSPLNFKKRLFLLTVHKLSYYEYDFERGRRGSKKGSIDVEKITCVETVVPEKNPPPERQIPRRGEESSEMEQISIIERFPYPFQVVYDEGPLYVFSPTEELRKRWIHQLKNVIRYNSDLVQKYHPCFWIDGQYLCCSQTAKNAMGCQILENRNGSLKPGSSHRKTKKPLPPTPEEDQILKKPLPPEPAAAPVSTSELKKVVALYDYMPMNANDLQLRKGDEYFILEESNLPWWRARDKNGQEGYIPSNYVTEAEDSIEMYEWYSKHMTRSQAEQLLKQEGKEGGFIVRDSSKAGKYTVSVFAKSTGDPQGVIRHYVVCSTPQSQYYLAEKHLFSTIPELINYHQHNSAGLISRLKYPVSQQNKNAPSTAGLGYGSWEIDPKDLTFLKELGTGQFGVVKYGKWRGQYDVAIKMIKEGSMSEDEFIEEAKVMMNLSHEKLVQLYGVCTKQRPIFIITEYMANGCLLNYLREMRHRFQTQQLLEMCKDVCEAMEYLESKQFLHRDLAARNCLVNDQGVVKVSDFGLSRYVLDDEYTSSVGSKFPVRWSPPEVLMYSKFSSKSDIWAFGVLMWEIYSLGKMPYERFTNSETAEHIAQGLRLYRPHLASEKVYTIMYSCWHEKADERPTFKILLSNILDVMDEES", "experiment": "Btk kinase assay (HTRF)", "format": "biochemical", "settings": "not given", "experimental": "(§1) Btk Kinase Assay and Other Kinases Assay Btk kinase activity was determined using a homogenous time resolved fluorescence (HTRF) methodology. Measurements were performed in a reaction volume of 15 μL using 384-well assay plates. Kinase enzyme, inhibitor, ATP and 1 μM peptide substrate were incubated in a reaction buffer compose of Hepes 50 mM (pH7.0), NaN3 0.02%, BSA 0.01%, Orthocanadate 0.1 mM. […] For each compound, enzyme activity as measured at various concentrations of compound, Negative control reactions were performed in the absence of inhibitor in two replicates and eight no enzyme controls were used to determine baseline fluorescence levels.", "units": {"IC50": "nM"}, "values": [{"smiles": "COc1cccc(Oc2ccc(-c3nn([C@@H]4CCCC(C(=O)O)C4)c4c(OC)cncc34)cc2)c1F", "note": "(stereo partly drawn) [Compound 121, (3R)-3-(3-(4-(2-fluoro-3-methoxyphenoxy)phenyl)-7-methoxy-1H-pyrazolo[4,3-c]pyridin-1-yl)cyclohexanecarboxylic acid]", "IC50": "10 to 100"}]}, {"target": "BTK (Homo sapiens (Human), UniProt Q06187)", "experiment": "Btk kinase assay (HTRF)", "format": "biochemical", "settings": "[ATP]=80 μM, BTK=3.4 nM; read-out: BTK Inhibition", "experimental": "as §1", "units": {"IC50": "nM"}, "values": [{"smiles": "C=CC(=O)N1CCC[C@@H](n2nc(-c3ccc(Oc4cccc(OC)c4F)cc3)c3cncc(C(F)F)c32)C1", "note": "[Compound 72, (R)-1-(3-(7-(difluoromethyl)-3-(4-(2-fluoro-3-methoxyphenoxy)phenyl)-1H-pyrazolo[4,3-c]pyridin-1-yl)piperidin-1-yl)prop-2-en-1-one]", "IC50": "10 to 100"}, {"smiles": "C=CC(=O)N1CCC[C@@H](n2nc(-c3ccc(Oc4ccccc4)cc3)c3c(N)cccc32)C1", "note": "[Compound 55, (R)-1-(3-(4-amino-3-(4-phenoxyphenyl)-1H-indazol-1-yl)piperidin-1-yl)prop-2-en-1-one]", "IC50": "10 to 100"}, {"smiles": "C=CC(=O)N1CC[C@@H](n2nc(-c3ccc(Oc4cccc(Cl)c4C)cc3)c3cnccc32)C1", "note": "[Compound 60, (R)-1-(3-(3-(4-(3-chloro-2-methylphenoxy)phenyl)-1H-pyrazolo[4,3-c]pyridin-1-yl)pyrrolidin-1-yl)prop-2-en-1-one]", "IC50": "10 to 100"}, {"smiles": "C=CC(=O)N1CCC[C@@H](n2nc(-c3ccc(Oc4cccc(OC)c4C)cc3)c3cnccc32)C1", "note": "[Compound 57, (R)-1-(3-(3-(4-(3-methoxy-2-methylphenoxy)phenyl)-1H-pyrazolo[4,3-c]pyridin-1-yl)piperidin-1-yl)prop-2-en-1-one]", "IC50": "10 to 100"}, {"smiles": "C=CC(=O)N1CC[C@@H](n2nc(-c3ccc(Oc4cccc(OC)c4Cl)cc3)c3cnccc32)C1", "note": "[Compound 13, (R)-1-(3-(3-(4-(2-chloro-3-methoxyphenoxy)phenyl)-1H-pyrazolo[4,3-c]pyridin-1-yl)pyrrolidin-1-yl)prop-2-en-1-one]", "IC50": "< 10"}, {"smiles": "CC#CC(=O)N1CCC[C@@H](n2nc(-c3ccc(C(=O)Nc4ccccn4)cc3)c3cnccc32)C1", "note": "[Compound 105, (R)-4-(1-(1-(but-2-ynoyl)piperidin-3-yl)-1H-pyrazolo [4,3-c]pyridin-3-yl)-N-(pyridin-2-yl)benzamide]", "IC50": "100 to 1000"}, {"smiles": "C=CC(=O)N1CC[C@@H](n2nc(-c3ccc(OCc4ccccc4F)cc3)c3cnccc32)C1", "note": "[Compound 100, (R)-1-(3-(3-(4-((2-fluorobenzyl)oxy)phenyl)-1H-pyrazolo[4,3-c]pyridin-1-yl)pyrrolidin-1-yl)prop-2-en-1-one]", "IC50": "10 to 100"}, {"smiles": "C=CC(=O)Nc1cccc(-n2nc(-c3ccc(Oc4ccccc4)cc3)c3cnccc32)c1", "note": "[Compound 22, N-(3-(3-(4-phenoxyphenyl)-1H-pyrazolo[4,3-c]pyridin-1-yl)phenyl)acrylamide]", "IC50": "10 to 100"}, {"smiles": "C=CC(=O)N1CC[C@@H](n2nc(-c3ccc(C(=O)NCc4cccc(OC)c4)cc3)c3cnccc32)C1", "note": "[Compound 103, (R)-4-(1-(1-acryloylpyrrolidin-3-yl)-1H-pyrazolo[4,3-c]pyridin-3-yl)-N-(3-methoxybenzyl)benzamide]", "IC50": "100 to 1000"}, {"smiles": "C=CC(=O)N1CCC[C@@H](n2nc(-c3ccc(N4CCC(N5CCCCC5)CC4)cc3)c3cnccc32)C1", "note": "[Compound 110, (R)-1-(3-(3-(4-([1,4′-bipiperidin]-1′-yl)phenyl)-1H-pyrazolo [4,3-c]pyridin-1-yl)piperidin-1-yl)prop-2-en-1-one]", "IC50": "10 to 100"}, {"smiles": "COc1cccc(Oc2ccc(-c3nn([C@@H]4CCCN(C(=O)C(N)=O)C4)c4c(OC)cncc34)cc2)c1F", "note": "[Compound 120, (R)-2-(3-(3-(4-(2-fluoro-3-methoxyphenoxy)phenyl)-7-methoxy-1H-pyrazolo[4,3-c]pyridin-1-yl)piperidin-1-yl)-2-oxoacetamide]", "IC50": "10 to 100"}, {"smiles": "C=CC(=O)N1CCC[C@@H](n2nc(-c3ccc(Oc4cccc(OC)c4OCCC)cc3)c3cncc(OCCC)c32)C1", "note": "[Compound 88, (R)-1-(3-(3-(4-(3-methoxy-2-propoxyphenoxy)phenyl)-7-propoxy-1H-pyrazolo[4,3-c]pyridin-1-yl)piperidin-1-yl)prop-2-en-1-one]", "IC50": "10 to 100"}]}]}
